Assay results: article PMC8841438 (Clinical and Translational Science, 2021)

Columns and labels:
[1] = biological target: MATE2K (Homo sapiens, UniProt Q86VL8); test: In vitro transporter inhibition: MATE2K; format: in vitro ADME; settings: data on file at Gilead Sciences, Inc.
[2] = test system: organic cation transporter 1; settings: in vitro; at clinically relevant concentrations; cited from earlier work
[3] = test system: organic anion transporting polypeptide 1B1; settings: in vitro; cited from earlier work
[4] = test system: organic anion transporting polypeptide 1B3; settings: in vitro; cited from earlier work
[5] = no reference given; cited from earlier work
[6] = ulcerative colitis phase IIb/III, cited from earlier work

MATE2K, sequence (Q86VL8 1-566 isoform Q86VL8-3): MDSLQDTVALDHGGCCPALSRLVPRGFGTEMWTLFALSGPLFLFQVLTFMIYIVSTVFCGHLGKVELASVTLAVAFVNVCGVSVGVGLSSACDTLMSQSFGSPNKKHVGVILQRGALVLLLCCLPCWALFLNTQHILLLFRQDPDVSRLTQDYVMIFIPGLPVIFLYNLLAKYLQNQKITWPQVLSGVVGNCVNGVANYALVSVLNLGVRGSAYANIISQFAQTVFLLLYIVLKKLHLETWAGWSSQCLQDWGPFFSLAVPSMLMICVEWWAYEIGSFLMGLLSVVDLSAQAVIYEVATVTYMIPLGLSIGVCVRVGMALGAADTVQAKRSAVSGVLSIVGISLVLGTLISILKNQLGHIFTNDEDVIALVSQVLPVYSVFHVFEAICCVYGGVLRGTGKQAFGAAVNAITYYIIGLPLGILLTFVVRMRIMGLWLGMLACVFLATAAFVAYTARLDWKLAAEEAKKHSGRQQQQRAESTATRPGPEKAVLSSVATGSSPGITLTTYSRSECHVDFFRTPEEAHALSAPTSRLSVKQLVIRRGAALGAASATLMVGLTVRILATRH

O=C(Nc1nc2cccc(-c3ccc(CN4CCS(=O)(=O)CC4)cc3)n2n1)C1CC1 [Filgotinib]
inhibition of MATE2K (in words) ([1]; in vitro data): may inhibit
ratio of maximum unbound plasma concentration over in vitro IC50 against MATE2K ([1]; patients with rheumatoid arthritis): 0.44
inhibition of organic cation transporter 1 [2]: not inhibitors
inhibition of OATP1B1 [3]: inhibited
inhibition of OATP1B3 [4]: inhibited
permeability (BCS) [5]: high permeability
solubility (BCS) [5]: low solubility
primary end point in the induction studies ([6]; 100 mg dose): did not meet the primary end point
primary end points (clinical remission at week 10 and week 58) ([6]; 200 mg dose): met all the primary end points
